The values that follow come from ChEMBL document CHEMBL1201862, “PubChem BioAssay data set” (2004).

Among the test systems are NCI-H23; SNB-19; CCRF-CEM; SK-MEL-28; UO-31; A498; UACC-62; HCT-15; HT-29; MOLT-4; SNB-75; U-251; HCT-116; DLD-1; SF-539; SN12C; SK-OV-3; K562; M14; NCI-H226.
Test in all cases: inhibition of tumour cell growth, NCI panel, 48 h

Each structure is given as a SMILES string.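 Values below derive from 48-hour exposures of cells grown in 96-well plates, with endpoints linearly interpolated between the two concentrations bracketing the appropriate inhibition level. GI50: concentration for 50% inhibition of growth.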 Active and inactive are the calls of the source. Rule as the data show it: active = GI50 up to about 1.1 µM and inactive = higher.

For `COc1ccc2c(c1)OCCc1cn[nH]c1-2`, the GI50 was 38.3 µM (inactive) with NCI-H23; 88.7 µM (inactive) with SNB-19; 37.4 µM (inactive) in the assay with CCRF-CEM; > 100 µM (inactive) in the assay with SK-MEL-28; 32.6 µM (inactive) in the assay on UO-31; 28.6 µM (inactive) in the assay on A498. The GI50 with UACC-62 is 22.8 µM (inactive); in the assay on HCT-15, 35.2 µM; in the assay on HT-29 it was 34.8 µM (inactive); in the assay on MOLT-4, 20.8 µM (inactive); in the assay on SNB-75, 28.4 µM (inactive); in the assay with U-251, 28.8 µM (inactive). In addition, the GI50 with HCT-116 is 42.4 µM (inactive); in the assay on DLD-1 it was 36.7 µM (inactive); in the assay with SF-539, 32.7 µM (inactive); in the assay on SN12C it was 38.6 µM (inactive); with SK-OV-3, 29.7 µM (inactive); in the assay on K562, 41.3 µM (inactive).
`CCC(=O)NC(Nc1ccc(O)cc1)(C(F)(F)F)C(F)(F)F`: the GI50 is 67.8 µM (inactive) with NCI-H23; > 100 µM (inactive) with SNB-19; 19.6 µM (inactive) in the assay with CCRF-CEM; > 100 µM (inactive) in the assay with SK-MEL-28; 35.6 µM (inactive) with UO-31; > 100 µM (inactive) in the assay on A498. Moreover, the GI50 is 40.1 µM (inactive) in the assay with UACC-62; 80.5 µM (inactive) in the assay with M14; 29.9 µM in the assay on HCT-15; > 100 µM (inactive) in the assay with HT-29; 42.5 µM (inactive) in the assay with MOLT-4; > 100 µM (inactive) with SNB-75. In addition, the GI50 in the assay with NCI-H226 is > 100 µM (inactive); in the assay with U-251, 73.6 µM (inactive); in the assay on HCT-116, 46.3 µM (inactive); in the assay on SF-539, 96.4 µM (inactive); in the assay with SN12C, > 100 µM (inactive); in the assay on SK-OV-3, > 100 µM (inactive). The GI50 in the assay on K562 was 33.1 µM (inactive).
As for `C/C(=C/C(=O)Nc1ccccc1)Nc1onc(C)c1C`, the GI50 in the assay on NCI-H23, with SNB-19, in the assay with CCRF-CEM, in the assay on SK-MEL-28, in the assay with UO-31 and in the assay on A498 was > 100 µM (inactive) in each case. Moreover, the GI50 is > 100 µM (inactive) with UACC-62; more than 100 µM with HCT-15; > 100 µM (inactive) in the assay on HT-29; > 100 µM (inactive) with MOLT-4; 38.4 µM (inactive) with SNB-75; > 100 µM (inactive) with NCI-H226. Besides, the GI50 in the assay on U-251, in the assay with HCT-116, in the assay with DLD-1, in the assay on SF-539, with SN12C and in the assay with SK-OV-3 was > 100 µM (inactive) throughout. In addition, in the assay on K562, the GI50 was > 100 µM (inactive).
Take `CC(=O)CCC#Cc1ccccc1C(=O)C(C)=[N+]=[N-]`: the GI50 with NCI-H23 is 36.1 µM (inactive); in the assay on SNB-19, > 100 µM (inactive); with CCRF-CEM it was 6.08 µM (inactive); in the assay on SK-MEL-28, 18.2 µM (inactive); in the assay on UO-31, 44.4 µM (inactive); in the assay on A498 it was 53.6 µM (inactive). Besides, the GI50 in the assay with UACC-62 was 16.1 µM (inactive); in the assay on M14, 20.3 µM (inactive); in the assay on HCT-15, 48.8 µM; with HT-29 it was 44.8 µM (inactive); with MOLT-4 it was 19.8 µM (inactive); in the assay with SNB-75, 15.6 µM (inactive). Moreover, the GI50 is 48.5 µM (inactive) in the assay on NCI-H226; 36.8 µM (inactive) with U-251; 13 µM (inactive) with HCT-116; 79.8 µM (inactive) in the assay with DLD-1; 97.3 µM (inactive) in the assay on SF-539; 49.1 µM (inactive) in the assay with SN12C. In addition, the GI50 is 57.7 µM (inactive) in the assay on SK-OV-3 and 20.8 µM (inactive) in the assay on K562.
`CSc1nc2c(ncn2C2OC(CO)C(O)C(O)C2O)c(=O)[nH]1` (stereo not drawn): the GI50 in the assay with NCI-H23, in the assay with SNB-19, in the assay on CCRF-CEM, with SK-MEL-28, with UO-31 and in the assay on A498 was > 100 µM (inactive) each time. Moreover, the GI50 in the assay with UACC-62 was > 100 µM (inactive); with HCT-15, more than 100 µM; with HT-29 it was > 100 µM (inactive); with MOLT-4, > 100 µM (inactive); in the assay on SNB-75, > 100 µM (inactive); in the assay on NCI-H226, > 100 µM (inactive). Further, the GI50 in the assay on U-251 was > 83.8 µM (inactive); in the assay on HCT-116, > 100 µM (inactive); in the assay with DLD-1, > 100 µM (inactive); in the assay on SF-539, > 100 µM (inactive); with SN12C, > 100 µM (inactive); in the assay with SK-OV-3, > 100 µM (inactive). The GI50 with K562 is > 100 µM (inactive).
Regarding `CC(C)c1cccc(C(C)C)c1NC(=S)Nc1ccccc1`, the GI50 is > 100 µM (inactive) with NCI-H23; > 100 µM (inactive) in the assay on SNB-19; 41.4 µM (inactive) with CCRF-CEM; > 100 µM (inactive) in the assay with SK-MEL-28; > 100 µM (inactive) in the assay with UO-31; > 100 µM (inactive) with A498. Further, the GI50 in the assay with UACC-62 was > 100 µM (inactive); with M14, > 100 µM (inactive); in the assay on HCT-15, more than 100 µM; with HT-29, > 100 µM (inactive); in the assay with MOLT-4, > 100 µM (inactive); with SNB-75 it was 36.5 µM (inactive). In addition, the GI50 with NCI-H226, with U-251, in the assay on HCT-116, in the assay with DLD-1, in the assay with SF-539 and with SN12C was > 100 µM (inactive) in each case. Moreover, the GI50 was > 100 µM (inactive) in the assay with SK-OV-3 and 70.6 µM (inactive) in the assay with K562.
On to `O=S(=O)(CF)OCCCCOS(=O)(=O)CF`, for which the GI50 was 97.9 µM (inactive) with NCI-H23; 95.3 µM (inactive) with SNB-19; 32.2 µM (inactive) with CCRF-CEM; > 100 µM (inactive) in the assay on SK-MEL-28; > 100 µM (inactive) with UO-31; > 100 µM (inactive) with A498. In addition, the GI50 in the assay on UACC-62 was > 100 µM (inactive); in the assay on M14, > 100 µM (inactive); in the assay on HCT-15, more than 100 µM; in the assay with HT-29, > 100 µM (inactive); in the assay on MOLT-4, 23.8 µM (inactive); with SNB-75 it was 27.7 µM (inactive). Moreover, the GI50 with NCI-H226, in the assay on U-251, in the assay on HCT-116, with SF-539, with SN12C and with SK-OV-3 was > 100 µM (inactive) each time. For the same compound, the GI50 in the assay on K562 was > 100 µM (inactive).
For the compound `COc1cccc(N[C@@H]2c3cc4c(cc3C(c3cc(OC)c(O)c(OC)c3)[C@H]3C(=O)OCC32)OCO4)c1` (stereo partly drawn), the GI50 with NCI-H23 is 0.587 µM (active); with SNB-19, 0.328 µM (active); with CCRF-CEM, 0.0546 µM (active); in the assay with SK-MEL-28 it was 2.49 µM (inactive); in the assay with UO-31, 0.302 µM (active); with A498, 0.293 µM (active). In addition, the GI50 in the assay with UACC-62 is 0.24 µM (active); in the assay on HCT-15 it was 0.552 µM; with HT-29, 0.973 µM (active); with MOLT-4, < 0.01 µM (active); with SNB-75, 0.52 µM (active); in the assay with NCI-H226, 0.249 µM (active). Further, the GI50 in the assay on U-251 was 0.411 µM (active); in the assay on HCT-116 it was 0.693 µM (active); with DLD-1, 1.58 µM (inactive); in the assay with SF-539, 0.369 µM (active); in the assay with SN12C, 0.681 µM (active); in the assay on SK-OV-3, 1.32 µM (inactive). For the same compound, the GI50 in the assay with K562 is 0.531 µM (active).
